Assay results taken from patent US20170000749A1, “Methods for Treating Cognitive Disorders Using Inhibitors of Histone Deacetylase” (Forum Pharmaceuticals, Inc., priority 2008, published 2017).
Read-outs that look alike come from different tables or passages of the source.

Assays:
[1] = target: one or more of HDAC-1, HDAC-2, HDAC-3, HDAC-4, HDAC-5, HDAC-6, HDAC-7, HDAC-8, HDAC-9, HDAC-10 and HDAC-11; test: Inhibition of Histone Deacetylase Enzymatic Activity (Boc-Lys(Ac)-AMC substrate, Fluor-de-Lys developer); type: biochemical; settings: read-out: HDAC Inhibition (IC50 μM) HDAC Enzyme
Method: The following protocol is used to assay the compounds of the disclosure.
The mixture is pre-incubated for 5 minutes at room temperature. The reaction is started by bringing the temperature to 37° C. and adding 16 μl substrate. Total reaction volume is 50 μl.
In the Tables 8, 9 and 10, A≦0.05 μM; 0.05 μM<B≦0.1 μM; 0.1 μM<C≦1 μM; and 1 μM<D≦10 μM.

[2] = system: HDAC activity in primary mouse cortical cultures; test: Whole-Cell Histone Deacetylase (HDAC) Inhibition Assay in Primary Mouse Cortical Cultures; type: cell-based; settings: whole-cell (WC), mouse cortical neurons, read-out: HDAC Inhibition (IC50 μM) WC mouse cortical neurons
Outline: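 Primary neocortical neurons from E17 Balb/C mouse embryos were plated at 50000 cells/well and treated at DIV9 with ten-point DMSO dilutions for 16-18 h at 37° C, in triplicate. BOC-Lys(Ac)-AMC substrate was then added for 1 h. Fluor de Lys developer containing 1 uM TSA produced a fluorophore, which was read.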

IC50 ([1]; Table 10) | IC50 ([2]; Table 10) | IC50 ([1]; Table 9) | IC50 ([2]; Table 9) | Compound | also measured
0.1 to 1 µM | 1 to 5 µM |  |  | O=C(CCc1ccc(CN2C(=O)c3ccccc3Oc3ccccc32)cc1)NO [N-hydroxy-3-(4-((11-oxodibenzo[b,f][1,4]oxazepin-10(11H)-yl)methyl)phenyl)propanamide] | 
< 0.05 µM | 1 to 5 µM |  |  | O=C(NO)c1ccc(C#CCN2C(=O)c3ccccc3Oc3ccccc32)cc1 [N-hydroxy-4-(3-(11-oxodibenzo[b,f][1,4]oxazepin-10(11H)-yl)prop-1-ynyl)benzamide] | 
0.05 to 0.1 µM | < 1 µM |  |  | O=C(NO)c1ccc(CCCN2C(=O)c3ccccc3Oc3ccccc32)cc1 [N-hydroxy-4-(3-(11-oxodibenzo[b,f][1,4]oxazepin-10(11H)-yl)propyl)benzamide] | 
 |  | 0.1 to 1 µM | 1 to 5 µM | COc1cccc(N2CC3CC2CN3c2ccc(C(=O)NO)cc2)c1 (centres unmarked) [N-hydroxy-4-(5-(3-methoxyphenyl)-2,5-diazabicyclo[2.2.1]heptan-2-yl)benzamide] | 
 |  | 0.1 to 1 µM | 1 to 5 µM | Cc1cccc(N2CC3CC2CN3c2ccc(C(=O)NO)cc2)c1 (centres unmarked) [N-hydroxy-4-(5-m-tolyl-2,5-diazabicyclo[2.2.1]heptan-2-yl)benzamide] | 
 |  |  |  | CN1c2ccccc2Oc2ccccc2C1c1ccc(C(=O)NO)cc1 (centres unmarked) [N-hydroxy-4-(10-methyl-10,11-dihydrodibenzo[b,f][1,4]oxazepin-11-yl)benzamide] | IC50 ([1]; Table 8): 0.1 to 1 µM; IC50 ([2]; Table 8): 5 to 15 µM
0.1 to 1 µM | > 15 µM |  |  | O=C(NO)c1ccc(N2C(=O)c3ccccc3Oc3ccccc32)cc1 [N-hydroxy-4-(11-oxodibenzo[b,f][1,4]oxazepin-10(11H)-yl)benzamide] | 
 |  | 1 to 10 µM | 5 to 15 µM | O=C(NO)c1ccc(N2C[C@H]3C[C@@H]2CN3c2cc(C(F)(F)F)ccn2)cc1 [N-hydroxy-4-((1R,4R)-5-(4-(trifluoromethyl)pyridin-2-yl)-2,5-diazabicyclo[2.2.1]heptan-2-yl)benzamide] | 
 |  | 0.1 to 1 µM | 1 to 5 µM | Cc1cccc(N2C[C@H]3C[C@@H]2CN3c2ccc(C(=O)NO)cc2)c1 [N-hydroxy-4-((1R,4R)-5-m-tolyl-2,5-diazabicyclo[2.2.1]heptan-2-yl)benzamide] | 
 |  | 0.1 to 1 µM | 1 to 5 µM | O=C(NO)c1ccc(N2C[C@@H]3C[C@H]2CN3c2cccc(C(F)(F)F)c2)cc1 [N-hydroxy-4-((1S,4S)-5-(3-(trifluoromethyl)phenyl)-2,5-diazabicyclo[2.2.1]heptan-2-yl)benzamide] | 
 |  | 0.1 to 1 µM | 1 to 5 µM | O=C(NO)c1ccc(N2C[C@@H]3C[C@H]2CN3c2cc(C(F)(F)F)ccn2)cc1 [N-hydroxy-4-((1S,4S)-5-(4-(trifluoromethyl)pyridin-2-yl)-2,5-diazabicyclo[2.2.1]heptan-2-yl)benzamide] | 
 |  | 0.1 to 1 µM | 1 to 5 µM | Cc1ccc(N2C[C@@H]3C[C@H]2CN3c2ccc(C(=O)NO)cc2)cc1 [N-hydroxy-4-((1S,4S)-5-p-tolyl-2,5-diazabicyclo[2.2.1]heptan-2-yl)benzamide] | 
0.1 to 1 µM | 1 to 5 µM |  |  | O=C(NO)c1ccc(CN2C(=O)c3ccccc3CCc3ccccc32)cc1 [N-hydroxy-4-((6-oxo-11,12-dihydrodibenzo[b,f]azocin-5(6H)-yl)methyl)benzamide] | 
< 0.05 µM | < 1 µM |  |  | O=C(NO)c1ccc(Cn2c(=O)c3ccccc3c3ccccc32)cc1 [N-hydroxy-4-((6-oxophenanthridin-5(6H)-yl)methyl)benzamide] | 
< 0.05 µM | < 1 µM |  |  | O=C(NO)c1ccc(CN2C(=O)c3ccccc3Oc3ccccc32)cc1 [N-hydroxy-4-((11-oxodibenzo[b,f][1,4]oxazepin-10(11H)-yl)methyl)benzamide] | 
 |  | 0.1 to 1 µM | 5 to 15 µM | O=C(NO)c1cnc(N2C[C@@H]3C[C@H]2CN3c2cccc(C(F)(F)F)c2)cn1 [N-hydroxy-5-((1S,4S)-5-(3-(trifluoromethyl)phenyl)-2,5-diazabicyclo[2.2.1]heptan-2-yl)pyrazine-2-carboxamide] | 
 |  | < 0.05 µM | < 1 µM | Cc1ccc(N2CC3CC2CN3c2ccc(C(=O)NO)cn2)cc1 (centres unmarked) [N-hydroxy-6-(5-p-tolyl-2,5-diazabicyclo[2.2.1]heptan-2-yl)nicotinamide] | 
< 0.05 µM | < 1 µM |  |  | O=C(CCCCCN1C(=O)c2ccccc2Oc2ccccc21)NO [N-hydroxy-6-(11-oxodibenzo[b,f][1,4]oxazepin-10(11H)-yl)hexanamide] | 
 |  | 0.1 to 1 µM | 5 to 15 µM | O=C(NO)c1ccc(N2C[C@@H]3C[C@H]2CN3c2cccc(C(F)(F)F)c2)nn1 [N-hydroxy-6-((1S,4S)-5-(3-(trifluoromethyl)phenyl)-2,5-diazabicyclo[2.2.1]heptan-2-yl)pyridazine-3-carboxamide] | 
< 0.05 µM | < 1 µM |  |  | O=C(CCCCCCn1c(=O)c2ccccc2c2ccccc21)NO [N-hydroxy-7-(6-oxophenanthridin-5(6H)-yl)heptanamide] | 
< 0.05 µM | < 1 µM |  |  | O=C(CCCCCCN1C(=O)c2ccccc2Oc2ccccc21)NO [N-hydroxy-7-(11-oxodibenzo[b,f][1,4]oxazepin-10(11H)-yl)heptanamide] | 
< 0.05 µM | < 1 µM |  |  | O=C(CCCCCCN1C(=O)c2ccccc2Sc2ccccc21)NO [N-hydroxy-7-(11-oxodibenzo[b,f][1,4]thiazepin-10(11H)-yl)heptanamide] | 
< 0.05 µM | 5 to 15 µM |  |  | O=C(CCCCCCOc1nc2ccccc2c2ccccc12)NO [N-hydroxy-7-(phenanthridin-6-yloxy)heptanamide] | 
0.05 to 0.1 µM | 1 to 5 µM |  |  | O=C(CCCCCCCN1C(=O)c2ccccc2Oc2ccccc21)NO [N-hydroxy-8-(11-oxodibenzo[b,f][1,4]oxazepin-10(11H)-yl)octanamide] | 
0.05 to 0.1 µM | 1 to 5 µM |  |  | O=C(NO)c1cnc(N2CCCN(C(=O)OCc3ccccc3)CC2)nc1 [benzyl 4-(5-(hydroxycarbamoyl)pyrimidin-2-yl)-1,4-diazepane-1-carboxylate] | 
